The results in this text go back to patent publication US8680012B2, “4-phenyl-pyrane-3,5-diones,4-phenyl-thiopyrane-3,6-diones and cyclohexanetriones as novel herbicides” (Syngenta Crop Protection LLC, priority 2006, dated 2014).

What all share (type): in vivo
The subject of assay [1] is Avena fatua (AVEFA). Description: Example B pre-emergence herbicidal activity, glasshouse pot test. The following applies: 312 h, rate 250 g/ha, evaluated after 13 days, read-out: Pre-emergence activity AVEFA (100=total damage to plant; 0=no damage to plant). Here is the method:
(§1) Seeds of a variety of test species were sown in standard soil in pots. After cultivation for one day (pre-emergence) or after 8 days cultivation (post-emergence) under controlled conditions in a glasshouse (at 24/16° C., day/night; 14 hours light; 65% humidity), the plants were sprayed with an aqueous spray solution derived from the formulation of the technical active ingredient in acetone/water (50:50) solution containing 0.5% Tween 20 (polyoxyethelyene sorbitan monolaurate, CAS RN 9005-64-5). The test plants were then grown in a glasshouse under controlled conditions in a glasshouse (at 24/16° C., day/night; 14 hours light; 65% humidity) and watered twice daily. After 13 days for pre and post-emergence, the test was evaluated (100=total damage to plant; 0=no damage to plant).
(§2) Alopecurus myosuroides (ALOMY), Avena fatua (AVEFA), Setaria faberi (SETFA), Echinochloa crus-galli (ECHCG), Solanum nigrum (SOLNI) and Amaranthus retroflexus (AMARE)

Assay [2] has as its system Setaria faberi (SETFA). The description is as above. The following applies: 312 h, rate 250 g/ha, evaluated after 13 days, read-out: Pre-emergence activity SETFA (100=total damage to plant; 0=no damage to plant). Here is the method: as §1, §2
Assay [3] has as its system Echinochloa crus-galli (ECHCG). The assay is described as above. The following applies: 312 h, rate 250 g/ha, evaluated after 13 days, read-out: Pre-emergence activity ECHCG (100=total damage to plant; 0=no damage to plant). Here is the method: as §1, §2
In assay [4] the test system is Amaranthus retroflexus (AMARE). Described as above. The following applies: 312 h, rate 250 g/ha, evaluated after 13 days, read-out: Pre-emergence activity AMARE (100=total damage to plant; 0=no damage to plant). Here is the method:
as §1, §2

Assay [5] relates to Alopecurus myosuroides (ALOMY). The assay is described as above. The following applies: 312 h, rate 250 g/ha, evaluated after 13 days, read-out: Pre-emergence activity ALOMY (100=total damage to plant; 0=no damage to plant). Here is the method:
as §1, §2

Assay [6] deals with Avena fatua (AVEFA). Description: Example B post-emergence herbicidal activity, glasshouse pot test. The following applies: 312 h, rate 250 g/ha, evaluated after 13 days, read-out: Post-emergence activity AVEFA (100=total damage to plant; 0=no damage to plant). Here is the method: as §1, §2
In assay [7] the test system is Setaria faberi (SETFA). Described as above. The settings on record: 312 h, rate 250 g/ha, evaluated after 13 days, read-out: Post-emergence activity SETFA (100=total damage to plant; 0=no damage to plant). How it is done:
as §1, §2

Assay [8] has as its system Echinochloa crus-galli (ECHCG). The assay is described as above. The following applies: 312 h, rate 250 g/ha, evaluated after 13 days, read-out: Post-emergence activity ECHCG (100=total damage to plant; 0=no damage to plant). Here is the method: as §1, §2
Assay [9] has as its system Amaranthus retroflexus (AMARE). The assay is described as above. The settings on record: 312 h, rate 250 g/ha, evaluated after 13 days, read-out: Post-emergence activity AMARE (100=total damage to plant; 0=no damage to plant). How it is done: as §1, §2
The test system of assay [10] is Alopecurus myosuroides (ALOMY). The description is as above. The following applies: 312 h, rate 250 g/ha, evaluated after 13 days, read-out: Post-emergence activity ALOMY (100=total damage to plant; 0=no damage to plant). Here is the method:
as §1, §2

With `CCOc1ccc(-c2ccc(Cl)cc2)cc1C1=C(O)C(C)(C)OC(C)(C)C1=O` [Compound A-89], the pest or weed control at 250 g/ha with Avena fatua (AVEFA) [1] was 0%; in the assay on Setaria faberi (SETFA) [2], 50%; in assay [3], 0%; in assay [4] it was 0%; in [5], 0%; with Avena fatua (AVEFA) [6], 50%. For the same compound, the pest or weed control at 250 g/ha with Setaria faberi (SETFA) [7] was determined as 80%; in assay [8] it was 90%; in [9], 0%; in [10], 80%.
Regarding `CCc1ccc(-c2ccc(Cl)c(F)c2F)cc1C1=C(O)C(C)(C)OC(C)(C)C1=O` [Compound A-153], the pest or weed control at 250 g/ha in the assay on Avena fatua (AVEFA) [1] worked out at 50%; with Setaria faberi (SETFA) [2] it was 100%; in assay [3], 100%; in assay [4], 0%; in [5] it was 60%; in the assay with Avena fatua (AVEFA) [6], 100%. Also, the pest or weed control at 250 g/ha in the assay on Setaria faberi (SETFA) [7] is 100%; in assay [8], 100%; in assay [9], 30%; in [10] it was 100%.
As for `CCc1ccc(-c2ccc(Cl)nc2C)cc1C1=C(O)C(C)(C)OC(C)(C)C1=O` [Compound A-77], the pest or weed control at 250 g/ha in the assay with Avena fatua (AVEFA) [1] amounted to 0%; in the assay on Setaria faberi (SETFA) [2], 20%; in [3], 0%; in assay [4], 0%; in assay [5], 10%; in the assay on Avena fatua (AVEFA) [6], 60%. Besides, the pest or weed control at 250 g/ha turned out to be 90% in the assay with Setaria faberi (SETFA) [7], 100% in assay [8], 0% in [9] and 70% in [10].
Regarding `Cc1ccc(-c2ccc(Cl)cc2Cl)cc1C1=C(O)C(C)(C)SC(C)(C)C1=O` [Compound C-6], the pest or weed control at 250 g/ha (in the assay with Avena fatua (AVEFA) [1]; in the assay with Setaria faberi (SETFA) [2]; in assay [3]; in [4]; in assay [5]; in the assay on Avena fatua (AVEFA) [6]) was 0% throughout. In addition, the pest or weed control at 250 g/ha with Setaria faberi (SETFA) [7] turned out to be 30%; in assay [8], 60%; in assay [9], 40%; in assay [10], 20%.
Consider `CCc1ccc(-c2ccc(Cl)c(OC)c2)cc1C1=C(O)C(C)(C)OC(C)(C)C1=O` [Compound A-135], for which the pest or weed control at 250 g/ha in the assay with Avena fatua (AVEFA) [1] was 100%; with Setaria faberi (SETFA) [2], 100%; in assay [3], 100%; in assay [4], 0%; in assay [5] it was 80%; in the assay with Avena fatua (AVEFA) [6], 100%. Also, the pest or weed control at 250 g/ha with Setaria faberi (SETFA) [7] was determined as 100%; in assay [8] it was 100%; in assay [9], 0%; in assay [10], 100%.
For the compound `CCc1ccc(-c2ccc(Cl)cc2)cc1C1=C(O)[C@@]2(CC)CC[C@H](O2)C1=O` [Compound A-79], the pest or weed control at 250 g/ha in the assay on Avena fatua (AVEFA) [1] turned out to be 40%; with Setaria faberi (SETFA) [2], 100%; in assay [3] it was 80%; in [4], 0%; in assay [5], 40%; with Avena fatua (AVEFA) [6], 50%. Further, the pest or weed control at 250 g/ha in the assay on Setaria faberi (SETFA) [7] came out at 100%; in assay [8] it was 100%; in assay [9] it was 0%; in assay [10] it was 80%.
Consider `CCc1ccc(-c2ccc(Cl)cc2Cl)cc1C1=C(OC(C)=O)C(C)(C)OC(C)(C)C1=O` [Compound D-23], for which the pest or weed control at 250 g/ha with Avena fatua (AVEFA) [1] amounted to 0%; in the assay on Setaria faberi (SETFA) [2], 90%; in assay [3] it was 100%; in assay [4], 0%; in [5] it was 0%; in the assay on Avena fatua (AVEFA) [6], 0%. Also, the pest or weed control at 250 g/ha in the assay on Setaria faberi (SETFA) [7] was 90%; in [8] it was 100%; in assay [9], 0%; in [10], 0%.
Take `Cc1ccc(-c2cnn(Cc3ccccc3)c2)cc1C1=C(O)C(C)(C)OC(C)(C)C1=O` [Compound A-143]: the pest or weed control at 250 g/ha in the assay on Avena fatua (AVEFA) [1] was 0%; in the assay with Setaria faberi (SETFA) [2] it was 70%; in [3] it was 0%; in assay [4] it was 0%; in assay [5] it was 20%; with Avena fatua (AVEFA) [6], 80%. In addition, the pest or weed control at 250 g/ha with Setaria faberi (SETFA) [7] was 90%; in assay [8] it was 100%; in [9], 0%; in assay [10], 90%.
Consider `CCc1ccc(-c2ccc(OC(F)F)cc2)cc1C1=C(O)C(C)(C)OC(C)(C)C1=O` [Compound A-151], for which the pest or weed control at 250 g/ha turned out to be 100% with Avena fatua (AVEFA) [1]; 100% in the assay on Setaria faberi (SETFA) [2]; 100% in assay [3]; 0% in assay [4]; 100% in [5]; 100% with Avena fatua (AVEFA) [6]. In addition, the pest or weed control at 250 g/ha in the assay on Setaria faberi (SETFA) [7] came to 100%; in assay [8], 100%; in assay [9] it was 0%; in [10] it was 100%.
In the case of `CCc1ccc(-c2ccc(Cl)nc2)cc1C1=C(OC(C)=O)C(C)(C)OC(C)(C)C1=O` [Compound D-22], the pest or weed control at 250 g/ha with Avena fatua (AVEFA) [1] worked out at 50%; in the assay with Setaria faberi (SETFA) [2] it was 100%; in assay [3] it was 100%; in assay [4], 0%; in assay [5] it was 60%; with Avena fatua (AVEFA) [6] it was 100%. In addition, the pest or weed control at 250 g/ha was determined as 100% with Setaria faberi (SETFA) [7], 100% in assay [8], 0% in [9] and 90% in assay [10].
On to `CCC(=O)OC1=C(c2cc(-c3ccc(Cl)cc3Cl)ccc2CC)C(=O)C(C)(C)OC1(C)C` [Compound D-25], for which the pest or weed control at 250 g/ha was found to be 0% with Avena fatua (AVEFA) [1]; 90% in the assay on Setaria faberi (SETFA) [2]; 90% in assay [3]; 0% in assay [4]; 20% in assay [5]; 20% in the assay on Avena fatua (AVEFA) [6]. Also, the pest or weed control at 250 g/ha was found to be 90% with Setaria faberi (SETFA) [7], 90% in assay [8], 0% in assay [9] and 0% in assay [10].
Take `CCc1ccc(-c2ccc(Cl)cc2F)cc1C1=C(O)C(C)(C)OC(C)(C)C1=O` [Compound A-66]: the pest or weed control at 250 g/ha in the assay on Avena fatua (AVEFA) [1] was 40%; in the assay with Setaria faberi (SETFA) [2], 50%; in [3] it was 60%; in assay [4] it was 0%; in [5] it was 0%; in the assay with Avena fatua (AVEFA) [6] it was 30%. In addition, the pest or weed control at 250 g/ha in the assay with Setaria faberi (SETFA) [7] was found to be 100%; in assay [8], 100%; in [9] it was 10%; in [10] it was 20%.
On to `CCc1ccc(-c2ccc(I)cc2)cc1C1=C(O)C(C)(C)OC(C)(C)C1=O` [Compound A-101], for which the pest or weed control at 250 g/ha with Avena fatua (AVEFA) [1] was found to be 100%; in the assay on Setaria faberi (SETFA) [2], 100%; in [3] it was 100%; in assay [4], 0%; in assay [5], 70%; in the assay on Avena fatua (AVEFA) [6] it was 100%. The pest or weed control at 250 g/ha with Setaria faberi (SETFA) [7] was found to be 100%; in [8], 100%; in assay [9], 0%; in assay [10], 100%.
